Results taken from patent publication US20120178915A1, “PYRIMIDINE DERIVATIVES AND ANALOGS, PREPARATION METHOD AND USE THEREOF” (priority 2009, published 2012).
Values after ≈ are worked out from the molar mass of the structure shown. Where two headings read alike, the source gives them in different places.

Experiments:
Type in all cases: cell-based
[1] = system: Gram-positive Bacteria
[2] = system: Bacillus cereus 2; assay: microbe, parasite or virus in culture; details: 37° C., 24 h, read-out: Minimum Inhibitory Concentration, MIC
[3] = system: Bacillus cereus 246; assay: microbe, parasite or virus in culture; details: 37° C., 24 h, read-out: Minimum Inhibitory Concentration, MIC
[4] = system: Bacillus subtilis 82; assay: microbe, parasite or virus in culture; details: 37° C., 24 h, read-out: Minimum Inhibitory Concentration, MIC
[5] = system: Bacillus subtilis 168; assay: microbe, parasite or virus in culture; details: 37° C., 24 h, read-out: Minimum Inhibitory Concentration, MIC
[6] = system: Enterococcus faecalis 29212; assay: microbe, parasite or virus in culture; details: 37° C., 24 h, read-out: Minimum Inhibitory Concentration, MIC
[7] = system: Enterococcus faecalis 51299; assay: microbe, parasite or virus in culture; details: Enterococcus faecalis, 51299, 24 h, read-out: Minimum Inhibitory Concentration, MIC
[8] = system: Enterococcus faecalis 19433; assay: microbe, parasite or virus in culture; details: 37° C., 24 h, read-out: Minimum Inhibitory Concentration, MIC
[9] = system: Enterococcus faecalis F2518 (VRE); assay: microbe, parasite or virus in culture; details: 24 h, read-out: Minimum Inhibitory Concentration, MIC
[10] = system: Enterococcus fecal F631 (VRE); assay: organism not typed; details: 24 h, read-out: Minimum Inhibitory Concentration, MIC
[11] = system: Enterococcus faecalis 1513 (VRE); assay: microbe, parasite or virus in culture; details: 24 h, read-out: Minimum Inhibitory Concentration, MIC
[12] = system: Enterococcus faecalis 583 (VRE); assay: microbe, parasite or virus in culture; details: 24 h, read-out: Minimum Inhibitory Concentration, MIC
[13] = system: Staphylococcus aureus 29231; assay: microbe, parasite or virus in culture; details: 37° C., 24 h, read-out: Minimum Inhibitory Concentration, MIC
[14] = system: Staphylococcus aureus 43300 (MRSA); assay: microbe, parasite or virus in culture; details: 24 h, read-out: Minimum Inhibitory Concentration, MIC
[15] = system: Staphylococcus aureus 703 (MRSA); assay: microbe, parasite or virus in culture; details: 24 h, read-out: Minimum Inhibitory Concentration, MIC
[16] = system: Staphylococcus aureus 704 (MRSA); assay: microbe, parasite or virus in culture; details: 24 h, read-out: Minimum Inhibitory Concentration, MIC
[17] = system: Staphylococcus aureus 705 (MRSA); assay: microbe, parasite or virus in culture; details: 24 h, read-out: Minimum Inhibitory Concentration, MIC
[18] = system: Streptococcus pneumoniae 6303 (PRSP); assay: microbe, parasite or virus in culture; details: 24 h, read-out: Minimum Inhibitory Concentration, MIC
[19] = system: Streptococcus pneumoniae 62; assay: microbe, parasite or virus in culture; details: 37° C., 24 h, read-out: Minimum Inhibitory Concentration, MIC
[20] = system: Streptococcus pneumoniae 6301; assay: microbe, parasite or virus in culture; details: 37° C., 24 h, read-out: Minimum Inhibitory Concentration, MIC
[21] = system: Streptococcus pneumoniae M2; assay: microbe, parasite or virus in culture; details: 37° C., 24 h, read-out: Minimum Inhibitory Concentration, MIC
[22] = system: Pyogenic Streptococcus; assay: microbe, parasite or virus in culture; details: 37° C., 24 h, read-out: Minimum Inhibitory Concentration, MIC
[23] = system: Streptococcus agalactiae B; assay: microbe, parasite or virus in culture; details: 37° C., 24 h, read-out: Minimum Inhibitory Concentration, MIC
[24] = system: green Streptococcus 1009; assay: microbe, parasite or virus in culture; details: 37° C., 24 h, read-out: Minimum Inhibitory Concentration, MIC
[25] = system: Streptococcus bovis 10035; assay: microbe, parasite or virus in culture; details: Streptococcus equinus, 37° C., 24 h, read-out: Minimum Inhibitory Concentration, MIC
[26] = system: Streptococcus 10342; assay: MIC broth microdilution; details: 37° C., 24 h, read-out: Minimum Inhibitory Concentration, MIC
[27] = system: Streptococcus pneumoniae 10351; assay: microbe, parasite or virus in culture; details: 37° C., 24 h, read-out: Minimum Inhibitory Concentration, MIC
[28] = system: Bacillus anthracis 1; assay: microbe, parasite or virus in culture; details: Bacillus anthracis, 1, 24 h, read-out: Minimum Inhibitory Concentration, MIC
[29] = system: Corynebacterium diphtheriae; assay: microbe, parasite or virus in culture; details: 37° C., 24 h, read-out: Minimum Inhibitory Concentration, MIC
[30] = system: Clostridium tetani; assay: microbe, parasite or virus in culture; details: 24 h
[31] = system: Clostridium perfringens; assay: microbe, parasite or virus in culture; details: 24 h, read-out: Minimum Inhibitory Concentration, MIC
[32] = system: Oral candidiasis; assay: MIC broth microdilution; details: Microorganism 32, Oral candidiasis; 37° C., 24 h; read-out: Minimum Inhibitory Concentration, MIC
[33] = MIC broth microdilution; details: Microorganism 33, Dermatophytosis; 37° C., 24 h; read-out: Minimum Inhibitory Concentration, MIC
[34] = read-out: Minimum Inhibitory Concentration, MIC, Microorganism 29, Clostridium tetani, 37° C.
[35] = read-out: Minimum Inhibitory Concentration, MIC, Microorganism 30, Clostridium tetani (second line of that name), 37° C.
[36] = Enterococcus faecalis (VRE), Staphylococcus aureus (MRSA), Streptococcus pneumoniae 6303 (PRSP), Bacillus cereus, Bacillus subtilis, Enterococcus faecalis, Staphylococcus aureus, Streptococcus pneumoniae, Streptococcus agalactiae B and streptococci 4

Structure (SMILES)	MIC [2] [µM]	MIC [3] [µM]	MIC [4] [µM]	MIC [5] [µM]	MIC [6] [µM]	MIC [7] [µM]	MIC [8] [µM]	MIC [9] [µM]	MIC [10] [µM]	MIC [11] [µM]	MIC [12] [µM]	MIC [13] [µM]	MIC [14] [µM]	MIC [15] [µM]	MIC [16] [µM]	MIC [17] [µM]	MIC [18] [µM]	MIC [19] [µM]	MIC [20] [µM]	MIC [21] [µM]	also measured
CCc1nn2c(=O)cc(-c3ccc(C#N)cc3)[nH]c2c1-c1ccc(Cl)cc1Cl [Compound 5]	10.5 (≈ 4.3 µg/mL)	0.3 (≈ 0.123 µg/mL)	0.04 (≈ 0.0164 µg/mL)	0.12 (≈ 0.0491 µg/mL)	0.16 (≈ 0.0655 µg/mL)	0.3 (≈ 0.123 µg/mL)	2.01 (≈ 0.823 µg/mL)	31.3 (≈ 12.8 µg/mL)	19.2 (≈ 7.86 µg/mL)	35.2 (≈ 14.4 µg/mL)	32.1 (≈ 13.1 µg/mL)	5.31 (≈ 2.17 µg/mL)	213 (≈ 87.3 µg/mL)	135 (≈ 55.4 µg/mL)	150 (≈ 61.5 µg/mL)	123 (≈ 50.4 µg/mL)	105 (≈ 43.1 µg/mL)	10.5 (≈ 4.3 µg/mL)	0.3 (≈ 0.123 µg/mL)	0.04 (≈ 0.0164 µg/mL)	inhibition of growth (conclusion from MICs) ([1]; the majority of Bacillus cereus, Bacillus subtilis and Enterococcus faecalis): significantly inhibited the growth; MIC [22]: 20.1 µM (≈ 8.23 µg/mL); MIC [23]: 0.16 µM (≈ 0.0655 µg/mL); MIC [24]: 0.31 µM (≈ 0.127 µg/mL); MIC [25]: 2.01 µM (≈ 0.823 µg/mL); MIC [26]: 1.33 µM (≈ 0.544 µg/mL); MIC [27]: 1.25 µM (≈ 0.512 µg/mL); MIC [28]: 52.4 µM (≈ 21.4 µg/mL); MIC [29]: 26.1 µM (≈ 10.7 µg/mL); MIC [30, 34]: 50.3 µM (≈ 20.6 µg/mL); MIC [30, 35]: 23.2 µM (≈ 9.5 µg/mL); MIC [31]: 55.3 µM (≈ 22.6 µg/mL); MIC [32]: 52.1 µM (≈ 21.3 µg/mL); MIC [33]: 33.5 µM (≈ 13.7 µg/mL)
Cc1nn2c(=O)cc(-c3ccc(C(F)(F)F)nc3)[nH]c2c1-c1ccc(Cl)cc1Cl [Compound 8]	0.65 (≈ 0.285 µg/mL)	2.6 (≈ 1.14 µg/mL)	1.35 (≈ 0.593 µg/mL)	0.66 (≈ 0.29 µg/mL)	0.66 (≈ 0.29 µg/mL)	0.36 (≈ 0.158 µg/mL)	11.5 (≈ 5.05 µg/mL)	0.32 (≈ 0.141 µg/mL)	0.04 (≈ 0.0176 µg/mL)	0.16 (≈ 0.0703 µg/mL)	0.31 (≈ 0.136 µg/mL)	10.3 (≈ 4.52 µg/mL)	0.6 (≈ 0.264 µg/mL)	1.23 (≈ 0.54 µg/mL)	10.3 (≈ 4.52 µg/mL)	50.6 (≈ 22.2 µg/mL)	1.23 (≈ 0.54 µg/mL)	0.63 (≈ 0.277 µg/mL)	2.5 (≈ 1.1 µg/mL)	1.25 (≈ 0.549 µg/mL)	inhibition of growth (conclusion from MICs) [1, 36]: significantly inhibited the growth; MIC [22]: 0.63 µM (≈ 0.277 µg/mL); MIC [23]: 0.56 µM (≈ 0.246 µg/mL); MIC [24]: 0.3 µM (≈ 0.132 µg/mL); MIC [25]: 10.5 µM (≈ 4.61 µg/mL); MIC [26]: 0.3 µM (≈ 0.132 µg/mL); MIC [27]: 0.04 µM (≈ 0.0176 µg/mL); MIC [28]: 56.8 µM (≈ 24.9 µg/mL); MIC [29]: 30.3 µM (≈ 13.3 µg/mL); MIC [30, 34]: 70.3 µM (≈ 30.9 µg/mL); MIC [30, 35]: 50.6 µM (≈ 22.2 µg/mL); MIC [31]: 61.3 µM (≈ 26.9 µg/mL); MIC [32]: 20.3 µM (≈ 8.92 µg/mL); MIC [33]: 31.8 µM (≈ 14 µg/mL)
Cc1nn2c(=O)cc(-c3ccc(C#N)cc3)[nH]c2c1-c1ccc(Cl)cc1Cl [Compound 10]	0.31 (≈ 0.123 µg/mL)	1.32 (≈ 0.522 µg/mL)	0.63 (≈ 0.249 µg/mL)	0.63 (≈ 0.249 µg/mL)	1.25 (≈ 0.494 µg/mL)	2.3 (≈ 0.909 µg/mL)	0.02 (≈ 0.0079 µg/mL)	0.31 (≈ 0.123 µg/mL)	0.56 (≈ 0.221 µg/mL)	0.61 (≈ 0.241 µg/mL)	0.99 (≈ 0.391 µg/mL)	0.63 (≈ 0.249 µg/mL)	1.23 (≈ 0.486 µg/mL)	0.34 (≈ 0.134 µg/mL)	0.23 (≈ 0.0909 µg/mL)	0.31 (≈ 0.123 µg/mL)	0.04 (≈ 0.0158 µg/mL)	0.25 (≈ 0.0988 µg/mL)	0.16 (≈ 0.0632 µg/mL)	0.31 (≈ 0.123 µg/mL)	inhibition of growth (conclusion from MICs) [1, 36]: significantly inhibited the growth; MIC [22]: 2.5 µM (≈ 0.988 µg/mL); MIC [23]: 5 µM (≈ 1.98 µg/mL); MIC [24]: 1.45 µM (≈ 0.573 µg/mL); MIC [25]: 1.05 µM (≈ 0.415 µg/mL); MIC [26]: 1.15 µM (≈ 0.455 µg/mL); MIC [27]: 1.35 µM (≈ 0.534 µg/mL); MIC [28]: 35.6 µM (≈ 14.1 µg/mL); MIC [29]: 70.3 µM (≈ 27.8 µg/mL); MIC [30, 34]: 60.3 µM (≈ 23.8 µg/mL); MIC [30, 35]: 20.3 µM (≈ 8.02 µg/mL); MIC [31]: 25.1 µM (≈ 9.92 µg/mL); MIC [32]: 99.2 µM (≈ 39.2 µg/mL); MIC [33]: 55.9 µM (≈ 22.1 µg/mL)
